Data reported in the NIST ThermoML archive (doi:10.1016/j.jct.2016.07.017).
± gives the expanded uncertainty stated by the source.

Assay: activity coefficient (dimensionless); of the first substance listed, at infinite dilution; xn = mol fraction of the nth substance listed
Details: 101.33 kPa, Liquid, Chromatography, x1 = 0

| Compound | activity coefficient (318.15 K) | activity coefficient (328.15 K) | activity coefficient (338.15 K) | activity coefficient (348.15 K) | activity coefficient (358.15 K) |
| --- | --- | --- | --- | --- | --- |
| CO [methanol] + CC[N+](C)(CC)CCOC.O=S(=O)([N-]S(=O)(=O)C(F)(F)F)C(F)(F)F | 1.33 ± 0.11 | 1.26 ± 0.11 | 1.15 ± 0.1 | 1.09 ± 0.09 | 1.01 ± 0.08 |
| Cc1ccccc1 [toluene] + CC[N+](C)(CC)CCOC.O=S(=O)([N-]S(=O)(=O)C(F)(F)F)C(F)(F)F | 1.47 ± 0.12 | 1.48 ± 0.13 | 1.5 ± 0.13 | 1.52 ± 0.13 | 1.53 ± 0.13 |
| C=CCCCC [hex-1-ene] + CC[N+](C)(CC)CCOC.O=S(=O)([N-]S(=O)(=O)C(F)(F)F)C(F)(F)F | 9.21 ± 0.8 | 8.78 ± 0.76 | 8.33 ± 0.72 | 8.07 ± 0.7 | 7.64 ± 0.66 |
| CCC(=O)CC [pentan-3-one] + CC[N+](C)(CC)CCOC.O=S(=O)([N-]S(=O)(=O)C(F)(F)F)C(F)(F)F | 0.852 ± 0.071 | 0.873 ± 0.072 | 0.889 ± 0.074 | 0.906 ± 0.075 | 0.916 ± 0.076 |
| CCC(C)(C)C [2,2-dimethylbutane] + CC[N+](C)(CC)CCOC.O=S(=O)([N-]S(=O)(=O)C(F)(F)F)C(F)(F)F | 15.1 ± 1.3 | 14 ± 1.2 | 13.3 ± 1.2 | 12.5 ± 1.1 | 11.9 ± 1 |
| CCCCCCC [heptane] + CC[N+](C)(CC)CCOC.O=S(=O)([N-]S(=O)(=O)C(F)(F)F)C(F)(F)F | 26.4 ± 2.3 | 24.4 ± 2.1 | 22.3 ± 1.9 | 21 ± 1.8 | 19.3 ± 1.7 |
| CCCCC(C)=O [2-hexanone] + CC[N+](C)(CC)CCOC.O=S(=O)([N-]S(=O)(=O)C(F)(F)F)C(F)(F)F | 1.14 ± 0.09 | 1.15 ± 0.1 | 1.16 ± 0.1 | 1.18 ± 0.1 | 1.19 ± 0.1 |
| CCCCO [butan-1-ol] + CC[N+](C)(CC)CCOC.O=S(=O)([N-]S(=O)(=O)C(F)(F)F)C(F)(F)F | 2.96 ± 0.26 | 2.63 ± 0.23 | 2.39 ± 0.21 | 2.18 ± 0.19 | 2 ± 0.17 |
| CC(C)=O [acetone] + CC[N+](C)(CC)CCOC.O=S(=O)([N-]S(=O)(=O)C(F)(F)F)C(F)(F)F | 0.484 ± 0.045 | 0.491 ± 0.046 | 0.499 ± 0.046 | 0.509 ± 0.047 | 0.518 ± 0.047 |
| CCc1ccccc1 [ethylbenzene] + CC[N+](C)(CC)CCOC.O=S(=O)([N-]S(=O)(=O)C(F)(F)F)C(F)(F)F | 2.24 ± 0.19 | 2.25 ± 0.19 | 2.26 ± 0.19 | 2.28 ± 0.2 | 2.29 ± 0.2 |
| CCCC(=O)CC [3-hexanone] + CC[N+](C)(CC)CCOC.O=S(=O)([N-]S(=O)(=O)C(F)(F)F)C(F)(F)F | 1.21 ± 0.1 | 1.22 ± 0.1 | 1.23 ± 0.1 | 1.24 ± 0.1 | 1.25 ± 0.1 |
| C1CCCCC1 [cyclohexane] + CC[N+](C)(CC)CCOC.O=S(=O)([N-]S(=O)(=O)C(F)(F)F)C(F)(F)F | 10.8 ± 0.9 | 10 ± 0.9 | 9.39 ± 0.81 | 8.74 ± 0.75 | 8.3 ± 0.72 |
| C=CCCCCCCCC [1-decene] + CC[N+](C)(CC)CCOC.O=S(=O)([N-]S(=O)(=O)C(F)(F)F)C(F)(F)F | 40.4 ± 3.5 | 37.4 ± 3.2 | 34.4 ± 3 | 32.2 ± 2.8 | 29.8 ± 2.6 |
| C=CCCCCCC [oct-1-ene] + CC[N+](C)(CC)CCOC.O=S(=O)([N-]S(=O)(=O)C(F)(F)F)C(F)(F)F | 19.6 ± 1.7 | 18.3 ± 1.6 | 17.1 ± 1.5 | 16.2 ± 1.4 | 15.2 ± 1.3 |
| c1ccncc1 [pyridine] + CC[N+](C)(CC)CCOC.O=S(=O)([N-]S(=O)(=O)C(F)(F)F)C(F)(F)F | 0.6 ± 0.053 | 0.604 ± 0.053 | 0.607 ± 0.053 | 0.615 ± 0.054 | 0.619 ± 0.054 |
